Marks after values point to notes of the source that are not given here.
Test system: TH2
Assay: Immune health biomarkers (T helper subsets): TH2
Format: in vivo, Swiss Albino mice
Conditions: T helper subset in blood after 28 days, mice, n = 8
Description: (§1) PMI Nutrition International, Brentwood, MO, USA). Distilled water was provided ad libitum. All animal experiments were reviewed and approved by the Institutional Animal Ethical Committee (IAEC) of Radiant Research Services Pvt. Ltd (Bangalore, India). All research was conducted in accordance with the guidelines of the committee for the purpose of control and supervision of experiments on animals (CPCSEA Registration Number-1803/PO/[…]). […] (1) vehicle control; […] (4) paraxanthine+dileucine; […] The dose administered to the mice was calculated using US Food and Drug Administration for human equivalence doses (HED), assuming a human weight of 60 kg. […] Dosing was conducted via oral gavage using disposable polypropylene syringes with sterilized stainless steel gavage tubes. The food intake and water consumption were monitored daily, and BW was recorded weekly. The last dose on day 28 was given 1 hour prior to testing. Serum and plasma samples were separated by centrifuging the blood at 8000 rpm for 10 mins and analyze the below mentioned biomarkers, Biomarkers: TC, TG, LDL and HDL, CRP, Serum lactate, Ammonia, Glucose, NO, IL-2, IL-6, IL-10. Blood was collected in EDTA tubes for below mentioned biomarkers, Immune health Biomarkers (T helper subsets): […]

Row | SMILES | TH2(%)
1 | N=C(N)NCCC[C@H](N)C(=O)O [L-Arginine, L-arginine] | 40.44*** %

Same assay, conditions: vs Exercise Control, 28 days

Row | SMILES | TH2 Change over control [%]
2 | N=C(N)NCCC[C@H](N)C(=O)O [L-Arginine, L-arginine] | 252

Test system: TH17
Assay: Immune health biomarkers (T helper subsets): TH17
Format: in vivo, Swiss Albino mice
Conditions: T helper subset in blood after 28 days, mice, n = 8
Description: as §1

Row | SMILES | TH17(%)
3 | N=C(N)NCCC[C@H](N)C(=O)O [L-Arginine, L-arginine] | 26.16*** %

Same assay, conditions: vs Exercise Control, 28 days

Row | SMILES | TH17 Change over control [%]
4 | N=C(N)NCCC[C@H](N)C(=O)O [L-Arginine, L-arginine] | 617

Test system: low-density lipids (LDL)
Assay: Blood lipids: LDL
Format: in vivo, Swiss Albino mice
Conditions: after 28 days of supplementation, mice, n = 8
Description: (§2) Eight 8-week-old male Swiss Albino mice per experimental group were housed in an animal room at a constant temperature (22±3° C.) and humidity (30%-70%) under a 12:12 h light-dark cycle with standard laboratory diet (Purina 5L79, Rat and Mouse 18% protein; PMI Nutrition International, Brentwood, MO, USA). Distilled water was provided ad libitum. All animal experiments were reviewed and approved by the Institutional Animal Ethical Committee (IAEC) of Radiant Research Services Pvt. Ltd (Bangalore, India). All research was conducted in accordance with the guidelines of the committee for the purpose of control and supervision of experiments on animals (CPCSEA Registration Number-1803/PO/RcBi/S/2015/CPCSEA).
(§3) After one week of acclimation, the animals were randomly divided by body weight into different groups (n=8 per group in each test) for oral treatment once a day, at approximately same time each day (+1 hour), for 28 consecutive days: (1) vehicle control; (2) paraxanthine (3) dileucine; (4) paraxanthine+dileucine; (5) L-arginine; (6) L-arginine+dileucine; (7) L-citrulline; and (8) L-citrulline+dileucine. The dose administered to the mice was calculated using US Food and Drug Administration for human equivalence doses (HED), assuming a human weight of 60 kg. The following HED were used in this study: 2,000 mg dileucine (RAMPS™, Ingenious Ingredients, L.P., Lewisville, TX, USA; mouse 411 mg/kg bw), 100 mg paraxanthine, (ENFINITY™, Ingenious Ingredients, L.P Lewisville, TX, USA; mouse dose: 20.5 mg/kg bw/day); 3,000 mg L-arginine (Nanjing Nutrabuilding Bio-tech Co., LTD., No. 270 Jiqingmen Strect, Suning Huigu, Building E6, Room 2105, Nanjing, China 210017; mouse 616.55 mg/kg bw), 3,000 mg L-citrulline (Nanjing Nutrabuilding Bio-tech Co., LTD., No. 270 Jiqingmen Street, Suning Huigu, Building E6, Room 2105, Nanjing, China 210017; mouse 616.55 mg/kg bw). 0.5% Carboxy Methyl Cellulose sodium was used as vehicle and the test item formulations were prepared daily. Dosing was conducted via oral gavage using disposable polypropylene syringes with sterilized stainless steel gavage tubes. The food intake and water consumption were monitored daily, and BW was recorded weekly. The last dose on day 28 was given 1 hour prior to testing.
(§4) All animals were euthanized by 95% CO2 after 28 days of following their assigned treatment. Blood was collected immediately after euthanization by the retro-orbital route and was immediately centrifuged at 1500×g for 10 min at 4° C. before having all serum transferred into cryogenic tubes and stored at −80° C.
(§5) Serum and plasma samples were separated by centrifuging the blood at 8000 rpm for 10 mins and analyze the below mentioned biomarkers, Biomarkers: TC, TG, LDL and HDL, CRP, Serum lactate, Ammonia, Glucose, NO, IL-2, IL-6, IL-10. Blood was collected in EDTA tubes for below mentioned biomarkers, Immune health Biomarkers (T helper subsets): TH1, TH2, TH17, Tfh, iTreg.

Row | SMILES | LDL [mg/dL]
5 | N=C(N)NCCC[C@H](N)C(=O)O [L-Arginine, L-arginine] | 44.66

Same assay, conditions: vs Exercise Control, 28 days

Row | SMILES | LDL Change over control [%]
6 | N=C(N)NCCC[C@H](N)C(=O)O [L-Arginine, L-arginine] | 3

Test system: IL-2
Assay: Inflammatory markers: IL-2
Format: in vivo, Swiss Albino mice
Conditions: after 28 days of supplementation and exercise, mice, n = 8
Description: as §2, §3, §4, §5

Row | SMILES | IL-2 (ng/L)
7 | N=C(N)NCCC[C@H](N)C(=O)O [L-Arginine, L-arginine] | 42.04*** ng/L

Same assay, conditions: vs Exercise Control, 28 days

Row | SMILES | IL-2 Change over control [%]
8 | N=C(N)NCCC[C@H](N)C(=O)O [L-Arginine, L-arginine] | 23

Test system: IL-6
Assay: Inflammatory markers: IL-6
Format: in vivo, Swiss Albino mice
Conditions: after 28 days of supplementation and exercise, mice, n = 8
Description: as §2, §3, §4, §5

Row | SMILES | IL-6 (pg/ml)
9 | N=C(N)NCCC[C@H](N)C(=O)O [L-Arginine, L-arginine] | 351.39** pg/ml

Same assay, conditions: vs Exercise Control, 28 days

Row | SMILES | IL-6 Change over control [%]
10 | N=C(N)NCCC[C@H](N)C(=O)O [L-Arginine, L-arginine] | −7

Test system: Tfh
Assay: Immune health biomarkers (T helper subsets): Tfh
Format: in vivo, Swiss Albino mice
Conditions: T helper subset in blood after 28 days, mice, n = 8
Description: as §2, §3, §5

Row | SMILES | Tfh(%) (mg/L)
11 | N=C(N)NCCC[C@H](N)C(=O)O [L-Arginine, L-arginine] | 44.16*** %

Same assay, conditions: vs Exercise Control, 28 days

Row | SMILES | Tfh Change over control [%]
12 | N=C(N)NCCC[C@H](N)C(=O)O [L-Arginine, L-arginine] | 465

Test system: IL-10
Assay: Inflammatory markers: IL-10
Format: in vivo, Swiss Albino mice
Conditions: after 28 days of supplementation and exercise, mice, n = 8
Description: as §2, §3, §4, §5

Row | SMILES | IL-10 (pg/ml)
13 | N=C(N)NCCC[C@H](N)C(=O)O [L-Arginine, L-arginine] | 565.47** pg/ml

Same assay, conditions: vs Exercise Control, 28 days

Row | SMILES | IL-10 Change over control [%]
14 | N=C(N)NCCC[C@H](N)C(=O)O [L-Arginine, L-arginine] | 5

Test system: not listed separately
Assay: Effect on body weight, 28-day oral supplementation with exercise
Format: in vivo, Swiss Albino mice
Conditions: Day −0 (baseline), mice, n = 8
Description: as §2, §3
Individual body weights were recorded at receipt, on the day of randomization, on the first day of treatment before dosing (Day 1) and weekly thereafter. The body weight changes for all the animals were calculated and reported along with the body weight data.

Row | SMILES | Body Weight (grams) Day −0 [grams]
15 | N=C(N)NCCC[C@H](N)C(=O)O [L-Arginine, L-arginine] | 23

Same assay, conditions: Day −0 to Day −28, oral once a day

Row | SMILES | Weight gain in grams [grams]
16 | N=C(N)NCCC[C@H](N)C(=O)O [L-Arginine, L-arginine] | 10.01

Same assay, conditions: Day −28, oral once a day for 28 days, mice, n = 8

Row | SMILES | Body Weight (grams) Day −28
17 | N=C(N)NCCC[C@H](N)C(=O)O [L-Arginine, L-arginine] | 33.01* grams

Same assay, conditions: weight gain vs Exercise Control, 28 days

Row | SMILES | Percentage weight loss over control [%]
18 | N=C(N)NCCC[C@H](N)C(=O)O [L-Arginine, L-arginine] | −7

Test system: not listed separately
Assay: Forelimb grip strength test
Format: in vivo, Swiss Albino mice
Conditions: Day −0 (baseline), mice, n = 8
Description: as §2, §3
The forelimb grip strength was measured on day 0 and day 28 by using a stainless-steel grill to assess muscle strength (Orchid Scientific & Innovative India Pvt Ltd, India). Grip strength was measured one hour after treatment. Briefly, each mouse was placed on a grill chamber and the steel bar is inverted; grip strength is measured by recording the time each animal holds the steel bar. The maximum time for each trial was six minutes. Each animal performed three independent trials separated by six minutes intervals and the mean of the three trials was calculated.

Row | SMILES | Forelimb grip strength (gf) Day −0 [gf]
19 | N=C(N)NCCC[C@H](N)C(=O)O [L-Arginine, L-arginine] | 99.75

Same assay, conditions: Day −28, one hour after treatment, oral once a day for 28 days

Row | SMILES | Forelimb grip strength (gf) Day −28
20 | N=C(N)NCCC[C@H](N)C(=O)O [L-Arginine, L-arginine] | 139.13*** gf

Same assay, conditions: Day −28 minus Day −0

Row | SMILES | Increase strength over Day −0 [gf]
21 | N=C(N)NCCC[C@H](N)C(=O)O [L-Arginine, L-arginine] | 39.38

Same assay, conditions: increase vs Exercise Control, 28 days

Row | SMILES | Percentage Increase over control (grip strength) [%]
22 | N=C(N)NCCC[C@H](N)C(=O)O [L-Arginine, L-arginine] | 39

Test system: C-reactive protein (CRP)
Assay: Inflammatory markers: CRP
Format: in vivo, Swiss Albino mice
Conditions: after 28 days of supplementation and exercise, mice, n = 8
Description: as §2, §3, §4, §5

Row | SMILES | CRP (mg/L)
23 | N=C(N)NCCC[C@H](N)C(=O)O [L-Arginine, L-arginine] | 0.69*** mg/L

Same assay, conditions: vs Exercise Control, 28 days

Row | SMILES | CRP Change over control [%]
24 | N=C(N)NCCC[C@H](N)C(=O)O [L-Arginine, L-arginine] | −16

Test system: nitric oxide
Assay: NO signaling: nitric oxide level
Format: in vivo, Swiss Albino mice
Conditions: after 28 days of supplementation and exercise, mice, n = 8
Description: as §2, §3, §4, §5

Row | SMILES | Nitric oxide (μmol/L) (mg/L)
25 | N=C(N)NCCC[C@H](N)C(=O)O [L-Arginine, L-arginine] | 77.98* μmol/L

Same assay, conditions: vs Exercise Control, 28 days

Row | SMILES | Nitric oxide Change over control [%]
26 | N=C(N)NCCC[C@H](N)C(=O)O [L-Arginine, L-arginine] | 29

Test system: high-density lipids (HDL)
Assay: Blood lipids: HDL
Format: in vivo, Swiss Albino mice
Conditions: after 28 days of supplementation, mice, n = 8
Description: as §2, §3, §4, §5

Row | SMILES | HDL [mg/dL]
27 | N=C(N)NCCC[C@H](N)C(=O)O [L-Arginine, L-arginine] | 35.86

Same assay, conditions: vs Exercise Control, 28 days

Row | SMILES | HDL Change over control [%]
28 | N=C(N)NCCC[C@H](N)C(=O)O [L-Arginine, L-arginine] | 5

Source: patent publication US20240299484A1, “DILEUCINE COMPOSITIONS AND METHODS OF USE THEREOF” (Ingenious Ingredients, LP, priority 2023, published 2024)
